Test results published in publication PMC3608651, “A Broad Profile of Co-Dominant Epitopes Shapes the Peripheral Mycobacterium tuberculosis Specific CD8+ T-Cell Immune Response in South African Patients with Active Tuberculosis” (PLoS ONE, 2013).
Where two headings read alike, the source gives them in different places.

Key:
Assay type in all cases: binding
HLA-A*02:01 = HLA-A*02:01 (Homo sapiens, UniProt P04439, D140Y/D185E/D98H/E176V/E277Q/G131W/G231S/I119V/I121R/I166T/I218V/L300P/L318F/N151K/N90K/P208A/P217A/Q86G/Q94H/R138H/R169H/T345S); details: plate-bound monomer 0.5 µg/ml, duplicated experiments, positive binder >40%
HLA-A*24:02 = HLA-A*24:02 (Homo sapiens, UniProt P04439, D101N/D140Y/D185E/E176V/E190D/F33S/G103R/G107R/I119L/I121M/I306V/K335N/L105A/L180Q/L300P/N151K/N90K/Q86E/Q94H/R106L/R138H/R89G/T104I/T345S/V100E/W191G/Y123F); details: duplicated experiments, positive binder >40%
HLA-A*30:01 = HLA-A*30:01 (Homo sapiens, UniProt P04439, D140H/D185E/E176W/F33S/G80R/H175R/K168Q/R138E/R41S); details: duplicated experiments, positive binder >40%
HLA-A*30:02 [1] = biological target: T1, HLA-A*30:02 (Homo sapiens, UniProt P04439, D101N/D140H/D185E/E176R/F33S/G80R/H175R/K168Q/Q94H/R138E/R41S/V100E); details: duplicated experiments, positive binder >40%
HLA-A*68:01 = HLA-A*68:01 (Homo sapiens, UniProt P04439, A269V/D185E/E176V/E277Q/E87N/F33Y/G231S/I121M/I166T/I218V/L180W/L300P/L318F/N151K/P208A/P217A/Q86R/R169H/T345S); details: duplicated experiments, positive binder >40%
HLA-B*07:02 = HLA-B*07:02 (Homo sapiens, UniProt P01889); details: percent relative the binding of positive control peptide […]; duplicated experiments; positive binder >40%
HLA-B*58:01 [2] = biological target: T2, HLA-B*58:01 (Homo sapiens, UniProt P01889, A329T/C349S/D201E/D98Y/E176V/E187L/E204Q/E69T/G107R/I218V/I90N/K202T/L105A/L119I/N104I/N87E/Q89R/Q94S/R106L/R155S/R180L/R86G/S101N/S121R/S35A/S48A/T118I/V127L/V306I/V36M/Y140S/Y91M); details: duplicated experiments, positive binder >40%
HLA-B*58:01 [3] = biological target: T2, HLA-B*58:01
HLA-B*58:01 [4] = biological target: T2, HLA-B*58:01; details: time points 0-8 h
HLA-C*07:01 = HLA-C*07:01 (Homo sapiens, UniProt P10321, K90N/S123Y); details: duplicated experiments, positive binder >40%
HLA-A*30:02 [5] = biological target: T1, HLA-A*30:02
HLA-A*30:02 [6] = biological target: T1, HLA-A*30:02; details: time points 0-8 h
[7] = percent relative the binding of positive control peptide […]
[8] = percent relative the binding of positive control peptide FLPSDFFPSV
[9] = percent relative the binding of positive control peptide RYLKDQQLL
[10] = percent relative the binding of positive control peptide KTKDIVNGL
[11] = percent relative the binding of positive control peptide KIQNFRVYY
[12] = percent relative the binding of positive control peptide KTGGPIYKR
[13] = percent relative the binding of positive control peptide IAMESIVIW
[14] = peptide titrated 10−4 to 10−9 M
[15] = percent relative the binding of positive control peptide KYFDEHYEY

Substance | Bind A*30:02 (HLA-A*30:02 [1]; [7]) | Bind A*68:01 (HLA-A*68:01; [7]) | Bind B*07:02 (HLA-B*07:02) | Bind B*58:01 (HLA-B*58:01 [2]; [7]) | Aff B*58:01 (ED50) (HLA-B*58:01 [3]) | O-rate B*58:01 (t1/2) (HLA-B*58:01 [4]) | Bind C*07:01 (HLA-C*07:01; [7]) | O-rate A*30:02 (t1/2) (HLA-A*30:02 [6]) | further results
AAGGHNAVF | 67% | 0% | 9% | 101% | 2e-07 M | 42 min | 39% | – | Bind A*02:01 (HLA-A*02:01; [7]): 31%; Bind A*24:02 (HLA-A*24:02; [7]): 34%; Bind A*30:01 (HLA-A*30:01; [7]): 15%
AGCQTYKW E | 18% | 4% | 2% | 121% | 2e-07 M | 120 min | 0% | – | Bind A*02:01 (HLA-A*02:01; [7]): 12%; Bind A*24:02 (HLA-A*24:02; [7]): 31%; Bind A*30:01 (HLA-A*30:01; [7]): 3%
DTGITYQAW [Rv0288_46–54] | – | 7% | – | 41% | 1e-06 M | 138 min | 0% | – | –
GITYQAWQA [Rv0288_48–56] | – | 0% | – | 46% | 9e-08 M | 12 min | 0% | – | –
LTKLAAAWG [Rv3875_36-44] | – | – | 6% | – | – | 72 min | – | – | Bind A*02:01 (HLA-A*02:01; [8]): 15%; Bind A*24:02 (HLA-A*24:02; [9]): 0%; Bind A*30:01 (HLA-A*30:01; [10]): 13%; Bind A*30:02 (HLA-A*30:02 [1]; [11]): 0%; Bind A*68:01 (HLA-A*68:01; [12]): 21%; Bind B*58:01 (HLA-B*58:01 [2]; [13]): 47%; Aff B*58:01 (ED50) (HLA-B*58:01 [3]; [14]): 7e-07 M; Bind C*07:01 (HLA-C*07:01; [15]): 13%
MSQIMYNYP [Rv0288_1–9] | – | 29% | – | 57% | 4e-06 M | 66 min | 10% | – | –
NGT HSWEYW | 83% | 35% | 4% | 74% | 4E -08 M | 114 min | 3% | 1.6 h | Bind A*02:01 (HLA-A*02:01; [7]): 0%; Bind A*24:02 (HLA-A*24:02; [7]): 42%; Bind A*30:01 (HLA-A*30:01; [7]): 0%; Aff A*30:02 (ED50) (HLA-A*30:02 [5]): 1000 nM
QAALQSAWQ [Rv0288_36–44] | – | 17% | – | 62% | 5e-05 M | 30 min | 7% | – | –
RAYHSMSST [Rv0288_67–75m1] | 7% | – | 14% | 32% | 2e-08 M | 24 min | 0% | – | –
RTISEAGQA [Rv3875_74–82] | – | – | 11% | – | – | – | – | 2 h | Bind A*02:01 (HLA-A*02:01; [8]): 18%; Bind A*24:02 (HLA-A*24:02; [9]): 0%; Bind A*30:01 (HLA-A*30:01; [10]): 19%; Bind A*30:02 (HLA-A*30:02 [1]; [11]): 98%; Aff A*30:02 (ED50) (HLA-A*30:02 [5]; [14]): 30 nM; Bind A*68:01 (HLA-A*68:01; [12]): 4%; Bind B*58:01 (HLA-B*58:01 [2]; [13]): 34%; Bind C*07:01 (HLA-C*07:01; [15]): 8%
SAIQGNVTS [Rv3875_16–24] | – | – | 4% | – | – | – | – | 0.9 h | Bind A*02:01 (HLA-A*02:01; [8]): 1%; Bind A*24:02 (HLA-A*24:02; [9]): 15%; Bind A*30:01 (HLA-A*30:01; [10]): 11%; Bind A*30:02 (HLA-A*30:02 [1]; [11]): 67%; Aff A*30:02 (ED50) (HLA-A*30:02 [5]; [14]): 30 nM; Bind A*68:01 (HLA-A*68:01; [12]): 29%; Bind B*58:01 (HLA-B*58:01 [2]; [13]): 12%; Bind C*07:01 (HLA-C*07:01; [15]): 12%
SAMILAAYH | 111% | 69% | 7% | 0% | – | – | 15% | 2.2 h | Bind A*02:01 (HLA-A*02:01; [7]): 9%; Bind A*24:02 (HLA-A*24:02; [7]): 0%; Bind A*30:01 (HLA-A*30:01; [7]): 0%; Aff A*30:02 (ED50) (HLA-A*30:02 [5]): 40 nM
SAWQGDTGI [Rv0288_41–49] | – | 30% | – | 46% | 3e-08 M | 36 min | 12% | – | –
SLTKLAAAW [Rv3875_35–43] | – | – | 5% | – | – | 54 min | – | – | Bind A*02:01 (HLA-A*02:01; [8]): 47%; Bind A*24:02 (HLA-A*24:02; [9]): 12%; Bind A*30:01 (HLA-A*30:01; [10]): 6%; Bind A*30:02 (HLA-A*30:02 [1]; [11]): 50%; Bind A*68:01 (HLA-A*68:01; [12]): 10%; Bind B*58:01 (HLA-B*58:01 [2]; [13]): 48%; Aff B*58:01 (ED50) (HLA-B*58:01 [3]; [14]): 4e-07 M; Bind C*07:01 (HLA-C*07:01; [15]): 8%
SNLKFQDAY | 124% | 18% | 0% | 14% | – | – | 52% | 1.6 h | Bind A*02:01 (HLA-A*02:01; [7]): 11%; Bind A*24:02 (HLA-A*24:02; [7]): 23%; Bind A*30:01 (HLA-A*30:01; [7]): 0%; Aff A*30:02 (ED50) (HLA-A*30:02 [5]): 200 nM
SSTHEANTM [Rv0288_73–81] | – | 0% | – | 41% | 2e-06 M | 48 min | 7% | – | –
TATELNNAL [Rv3875_61–69] | – | – | 12% | – | – | – | – | 2.6 h | Bind A*02:01 (HLA-A*02:01; [8]): 11%; Bind A*24:02 (HLA-A*24:02; [9]): 15%; Bind A*30:01 (HLA-A*30:01; [10]): 4%; Bind A*30:02 (HLA-A*30:02 [1]; [11]): 106%; Aff A*30:02 (ED50) (HLA-A*30:02 [5]; [14]): 9 nM; Bind A*68:01 (HLA-A*68:01; [12]): 13%; Bind B*58:01 (HLA-B*58:01 [2]; [13]): 0%; Bind C*07:01 (HLA-C*07:01; [15]): 5%
TGITYQAWQ [Rv0288_47–55] | – | 8% | – | 40% | 4e-06 M | 48 min | 0% | – | –
TYQAWQAQW [Rv0288_50–58] | – | 0% | – | 119% | 1e-07 M | 60 min | 0% | – | –
VFNFPPNGT | 113% | 3% | 0% | 33% | – | – | 0% | 1.2 h | Bind A*02:01 (HLA-A*02:01; [7]): 34%; Bind A*24:02 (HLA-A*24:02; [7]): 25%; Bind A*30:01 (HLA-A*30:01; [7]): 3%; Aff A*30:02 (ED50) (HLA-A*30:02 [5]): 30000 nM
WGGSGSEAY [Rv3875_43–51] | – | – | 7% | – | – | – | – | 1.1 h | Bind A*02:01 (HLA-A*02:01; [8]): 3%; Bind A*24:02 (HLA-A*24:02; [9]): 0%; Bind A*30:01 (HLA-A*30:01; [10]): 18%; Bind A*30:02 (HLA-A*30:02 [1]; [11]): 89%; Aff A*30:02 (ED50) (HLA-A*30:02 [5]; [14]): 400 nM; Bind A*68:01 (HLA-A*68:01; [12]): 2%; Bind B*58:01 (HLA-B*58:01 [2]; [13]): 2%; Bind C*07:01 (HLA-C*07:01; [15]): 21%
YQAWQAQWN [Rv0288_51–59] | – | 23% | – | 52% | 2e-06 M | 120 min | 0% | – | –
